29 compounds from publication PMC11188874, “HDAC6 Inhibition Releases HR23B to Activate Proteasomes, Expand the Tumor Immunopeptidome and Amplify T-cell Antimyeloma Activity” (Cancer Research Communications, 2024) can be followed below.

Data set [1] deals with proteasome ChT-like activity in RPMI-8226 cells. Description: Cell-based high-throughput screen of proteasome ChT-like activity (LLVY-R110). Also noted: species or system human. The following applies: 3 µmol/L, 21 hours, then LLVY-R110 18 hours.
Data set [2] is described as follows: Cell viability, XTT assay. It counts as cell-based. As to conditions: human, RPMI-8226 cells, XTT (Fig. 1C, 1D), read-out: cell viability maintained. As for the experimental part:
Cell viability was determined using the XTT assay ([23]). Briefly, 50,000 cells were added to 96-well plates in a volume of 250 µL in RPMI media that lacked phenol red. Drugs were added at indicated concentrations and plates incubated under standard conditions for 72 hours. XTT sodium salt tetrazolium reagent (Gold Biotechnology, catalog no. X-200) was diluted in PBS (1 mg/mL) containing phenazine methosulfate (PMS, 7.5 µg/mL). Cells were incubated with the XTT+PMS reagent for 3 hours at 37°C and absorbance was measured at 450 nm using a Molecular Devices i3x Spectramax plate reader.

The subject of data set [3] is proteasome ChT-like activity in MMCLs. Description: Proteasome ChT-like activity in cultured multiple myeloma cells (LLVY-R110). As to conditions: for increase in proteasome activity: RPMI-8226 cells, 1 µmol/L, 72 hours (Fig. 1B, 1D); for proteasome activity (in words): MM cells, 1 uM, 72 h (Fig. S14C, S14D).
The subject of data set [4] is E.G7-Ova cells. Kind of data set: B3Z T-cell hybridoma assay, annexin-V/propidium iodide. The following applies: pretreatment 1 µmol/L 72 hours, E:T 2:1 (Fig. 2C). Format: cell-based, mouse.
For data set [5], the system named is 27 cancer cell lines. As to conditions: 1 µmol/L, 72 hours.
Data set [6] deals with 27 cancer cell lines. Kind of data set: Proteasome activity in a panel of cancer cell lines (LLVY-R110). The following applies: 1 µmol/L, 72 hours; for Number of Cell Lines: Both Increased: proteasome activity and class I presentation.
Data set [7] deals with E.G7-Ova cells. Kind of data set: Murine MHC-I immunopeptidome analysis by MS. It counts as cell-based, mouse. As to conditions: 1 µmol/L, 72 hours.
For data set [8], the system named is E.G7-Ova cells. Description: Quantitation of […]–MHC-I complex by flow cytometry. The following applies: normalized to untreated (Fig. 2A). Format: cell-based, mouse.
The next data set deals with RPMI-8226 cells. Description: Myeloma MHC-I immunopeptidome analysis by MS. Format: cell-based, human. The following applies: 1 µmol/L.
Another data set has as its target T1, HDAC10 (Homo sapiens, UniProt Q969S8).
T1 construct: purchased Reaction Biology (Malvern, PA)
T1 sequence (Q969S8 1-669): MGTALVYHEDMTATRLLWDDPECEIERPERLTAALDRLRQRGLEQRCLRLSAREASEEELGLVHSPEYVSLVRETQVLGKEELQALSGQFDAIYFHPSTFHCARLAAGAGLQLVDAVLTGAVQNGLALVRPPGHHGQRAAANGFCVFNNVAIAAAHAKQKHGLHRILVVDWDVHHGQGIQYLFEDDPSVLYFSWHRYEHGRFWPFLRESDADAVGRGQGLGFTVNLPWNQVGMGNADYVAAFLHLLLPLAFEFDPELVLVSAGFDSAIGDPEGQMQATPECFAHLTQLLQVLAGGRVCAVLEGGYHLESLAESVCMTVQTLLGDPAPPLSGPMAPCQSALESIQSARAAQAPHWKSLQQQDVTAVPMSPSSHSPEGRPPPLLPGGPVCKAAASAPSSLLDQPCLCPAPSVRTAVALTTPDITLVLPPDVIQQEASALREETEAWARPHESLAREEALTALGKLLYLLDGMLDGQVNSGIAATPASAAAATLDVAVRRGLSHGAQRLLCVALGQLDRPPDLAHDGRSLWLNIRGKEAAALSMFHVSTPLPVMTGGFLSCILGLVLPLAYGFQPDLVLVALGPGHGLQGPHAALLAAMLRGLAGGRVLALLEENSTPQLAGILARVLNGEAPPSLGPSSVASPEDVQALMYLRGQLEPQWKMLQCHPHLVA
Kind of data set: In vitro biochemical activity assay, HDAC10. As to conditions: 10-dose, 3-fold serial dilution; Data 1-3 are triplicates; substrate Ac-spermidine-AMC.

The test system of another data set is purified proteasomes. Description: Activity of proteasomes purified by conventional methods. Format: biochemical.
The mark [9] stands for this setting: RPMI-8226 multiple myeloma cells.

Where “and” joins values, the source holds several entries; their conditions need not be identical. Identical values can stand only once. Like-named read-outs stand apart in the source and are kept apart here. Peptide text beside a SMILES is read from it. * marks the point of attachment. Cbz = O=C(OCc1ccccc1)* Bounds are passed on as bounds.

For the compound `COc1ccc(C[C@H](NC(=O)[C@H](C)NC(=O)CN2CCOCC2)C(=O)N[C@@H](Cc2ccccc2)C(=O)C2(C)CO2)cc1` (stereo in doubt) [ONX-0914], the “Fold-Decrease of proteasome ChT-like activity in the HTS” value (from here on “Fold-Decrease”) in [1] amounted to 4 fold.
One may read the viability as the share of living cells, or the viability signal relative to a control. As for `O.c1cnc2c(c1)ccc1cccnc12` [1,10-phenanthroline monohydrate], the viability at 16 h, 1 µmol/L in [2] was at least 75%. In [3], the “increase in proteasome activity” value is on record as at least 30%. The “Fold-Increase of proteasome ChT-like activity in the HTS” value (“Fold-Increase” below) in data set [1] stood at 1.3 fold.
For the compound `COC1=C(OC)C(=O)c2ccccc2C1=O` [2,3-Dimethoxy-1,4-naphthoquinone], the “Fold-Increase” value in data set [1] was 1.2 fold.
On to `O=C(NO)c1cnc(NC2(c3ccccc3)CC2)nc1` [ACY-738], for which the “number of CD8neg/annexin-V+/propidium iodide+ E.G7-Ova cells after coculture with B3Z cells” value with E.G7-Ova cells [4] is “significantly increased”. Besides, in the data set with 27 cancer cell lines [5], the “Number of Cell Lines: Increased Class I Presentation” value is listed as 23 cell lines. Further, in the data set with 27 cancer cell lines [6], the “Number of Cell Lines: Increased Proteasome Activity” value is listed as 19 cell lines and the “Number of Cell Lines: Both Increased” value is 18 cell lines. The viability at 16 h, 1 µmol/L in data set [2] (setting [9]) is at least 75%. Also, in data set [3], the “increase in proteasome activity” value is at least 30%. Besides, in the data set with E.G7-Ova cells [7], the “peak area of SIINFEKL compared with untreated” value came to 1.5 fold. In addition, in the data set with E.G7-Ova cells [8], the “increase in presentation of the class I molecule–SIINFEKL complex” value is “over 3 fold”. In the data set on RPMI-8226 cells (72 hours), the “number of peptides increased more than 20-fold” value is reported as “four”. Besides, the “number of peptides with ≥2-fold increase” value in the data set on RPMI-8226 cells (72 hours, 8,019 peptides detected) was 118 peptides. Besides, the “Fold-Increase” value in [1] turned out to be 1.6 fold.
Usually IC50 stands for the concentration that gives 50% inhibition. Low values mean greater potency in that assay, high ones weaker potency in that assay. On to `O=C(CCCCCCNC(=O)c1cnc(N(c2ccccc2)c2ccccc2)nc1)NO` [ACY-1215], for which the “number of CD8neg/annexin-V+/propidium iodide+ E.G7-Ova cells after coculture with B3Z cells” value in the data set on E.G7-Ova cells [4] is listed as “significantly increased”. For the same compound, in the data set with 27 cancer cell lines [5], the “Number of Cell Lines: Increased Class I Presentation” value is listed as 19 cell lines. In the data set on 27 cancer cell lines [6], the “Number of Cell Lines: Increased Proteasome Activity” value came out at 21 cell lines and the “Number of Cell Lines: Both Increased” value amounted to 18 cell lines. Also, in data set [2] (setting [9]), the viability at 16 h, 1 µmol/L was at least 75%. For the same compound, the “increase in proteasome activity” value in data set [3] is recorded as at least 30%. Besides, the IC50 on HDAC10 is 368 nM and 333 nM and 356 nM. Further, the “increase in presentation of the class I molecule–SIINFEKL complex” value in the data set on E.G7-Ova cells [8] is reported as “over 3 fold”.
For `CC(=O)O[C@H]1CC[C@@]2(C)C(=CC[C@@H]3[C@@H]2CC[C@]2(C)C(c4cccnc4)=CC[C@@H]32)C1` [Abiraterone acetate], in the data set with purified proteasomes, the “direct effect on the activity of purified proteasomes” value (shortened to “direct effect on the activity”) was “did not observe a direct effect”. Besides, in [1], the “Fold-Increase” value was 1.7 fold.
`COc1ccc(-c2ccc3ncc4c(c3c2)n(-c2ccc(N3CCNCC3)c(C(F)(F)F)c2)c(=O)n4C)cn1` [BGT226]: the “Fold-Decrease” value in [1] is given as 25 fold.
Take `C=C(C)[C@@H]1CC[C@]2(C(=O)O)CC[C@]3(C)[C@H](CC[C@@H]4[C@@]5(C)CC[C@H](O)C(C)(C)[C@@H]5CC[C@]43C)[C@@H]12` [Betulinic acid]: the “Fold-Increase” value in data set [1] came to 1.3 fold.
Take `CC(C)C[C@H](NC(=O)[C@@H](NC(=O)c1cccc(-c2ccccc2)n1)[C@@H](C)O)B(O)O` [CEP-18770]: the “Fold-Decrease” value in data set [1] is reported as 4 fold.
Turning to `CNc1ccc2oc(C[C@H]3O[C@@]4(CC[C@H]3C)O[C@H]([C@H](C)C(=O)c3ccc[nH]3)[C@H](C)C[C@H]4C)nc2c1C(=O)O` [Calcimycin], in [1], the “Fold-Decrease” value is on record as 5 fold.
On to `CC(C)C[C@H](NC(=O)[C@H](CCc1ccccc1)NC(=O)CN1CCOCC1)C(=O)N[C@@H](Cc1ccccc1)C(=O)N[C@@H](CC(C)C)C(=O)[C@@]1(C)CO1` [Carfilzomib], for which the “Fold-Decrease” value in data set [1] was found to be 54 fold.
Take `CN(CCCCCCNc1ccnc2cc(Cl)ccc12)CCCCCCNc1ccnc2cc(Cl)ccc12` [DC-661]: the “direct effect on the activity” value with purified proteasomes is “did not observe a direct effect”. Also, the “Fold-Increase” value in [1] is listed as 1.6 fold.
For `OCCN(CCO)c1nc(N2CCCCC2)c2nc(N(CCO)CCO)nc(N3CCCCC3)c2n1` [Dipyridamole], the “Fold-Increase” value in [1] worked out at 2.0 fold.
Turning to `COc1cccc2c1C(=O)c1c(O)c3c(c(O)c1C2=O)C[C@@](O)(C(=O)CO)C[C@@H]3O[C@H]1C[C@H](N)[C@@H](O)[C@H](C)O1` [Epirubicin], the “Fold-Decrease” value in data set [1] is 4 fold.
For `CCN(CCO)CCCC(C)Nc1ccnc2cc(Cl)ccc12` (stereo not drawn) [Hydroxychloroquine], the “Fold-Increase” value in [1] worked out at 1.2 fold.
Turning to `CC(C)C[C@@H](C=O)NC(=O)[C@H](CC(C)C)NC(=O)[C@H](CC(C)C)NC(=O)OCc1ccccc1` [MG-132] (Cbz-Leu-Leu-Leu-aldehyde), the “Fold-Decrease” value in data set [1] came to 16 fold.
With `COC[C@H](NC(=O)c1cnc(C)s1)C(=O)N[C@@H](COC)C(=O)N[C@@H](Cc1ccccc1)C(=O)[C@@]1(C)CO1` [ONX-0912], the “Fold-Decrease” value in [1] is listed as 4 fold.
With `C1=C/COCc2cc(ccc2OCCN2CCCC2)Nc2nccc(n2)-c2cccc(c2)COC/1` [Pacritinib], the “Fold-Decrease” value in data set [1] is on record as 5 fold.
On HDAC10, `Cn1cc(CNCC2CCN(c3ncc(C(=O)NO)cn3)CC2)c2ccccc21` [Quisinostat] gave an IC50 of 4.89 nM.
Take `CO[C@H]1C[C@@H]2CC[C@@H](C)[C@@](O)(O2)C(=O)C(=O)N2CCCC[C@H]2C(=O)O[C@H]([C@H](C)C[C@@H]2CC[C@@H](O)[C@H](OC)C2)CC(=O)[C@H](C)/C=C(\C)[C@@H](O)[C@@H](OC)C(=O)[C@H](C)C[C@H](C)/C=C/C=C/C=C/1C` [Rapamycin]: in data set [1], the “Fold-Increase” value came out at 1.8 fold.
As to `Nc1nc2ccc(OC(F)(F)F)cc2s1` [Riluzole], the “direct effect on the activity” value in the data set on purified proteasomes is “did not observe a direct effect”.
Regarding `COc1ccc(C2CNC(=O)C2)cc1OC1CCCC1` (stereo not drawn) [Rolipram], the “Fold-Increase” value in [1] came out at 1.3 fold.
For `CC[C@@H](C(=O)[C@@H](C)[C@@H](O)[C@H](C)[C@@H]1O[C@@H]([C@@H](CC)C(=O)O)CC[C@@H]1C)[C@H]1O[C@]2(C=C[C@@H](O)[C@]3(CC[C@@](C)([C@H]4CC[C@](O)(CC)[C@H](C)O4)O3)O2)[C@H](C)C[C@@H]1C` [Salinomycin], the “direct effect on the activity” value in the data set on purified proteasomes was “did not observe a direct effect”. In [1], the “Fold-Increase” value was 2.0 fold.
For the compound `C=C[C@](C)(O)CC[C@@H]1[C@@]2(C)CCCC(C)(C)[C@@H]2CC[C@@]1(C)O` [Sclareol], the “Fold-Increase” value in data set [1] was determined as 1.4 fold.
Take `COCCn1c2c([n+](Cc3cnccn3)c1C)C(=O)c1ccccc1C2=O` [YM155]: the “Fold-Decrease” value in data set [1] is on record as 11 fold.
On the same count and under the same terms, in the case of `CN(C)CCc1c[nH]c2ccc(C[C@H]3COC(=O)N3)cc12` [Zolmitriptan] it was 4 fold.
For the compound `Cc1[nH]c2ccccc2c1CCNCc1ccc(/C=C/C(=O)NO)cc1` [panobinostat], in data set [3], the “proteasome activity (in words)” value is reported as “did not significantly increase”.
Consider `C/C=C1\NC(=O)[C@H]2CSSCC/C=C/[C@H](CC(=O)N[C@H](C(C)C)C(=O)N2)OC(=O)[C@H](C(C)C)NC1=O` [romidepsin], for which the “proteasome activity (in words)” value in [3] is recorded as “did not significantly increase”.
For the compound `O=C(CCCCCCC(=O)Nc1ccccc1)NO` [vorinostat, suberoylanilide hydroxamic acid], the “proteasome activity (in words)” value in data set [3] is “did not significantly increase”.
